Assay results as given in patent publication US9617244B2, “Antibacterial quinoline derivatives” (JANSSEN PHARMACEUTICA NV, priority 2012, dated 2017).
Values after ≈ are worked out from the molar mass of the structure shown. Structures can show the parent of a compound that is named as a salt.

Columns and labels:
[1] = tested on: Mycobacterium smegmatis (ATCC607); test: In-vitro anti-bacterial activity against strain M. Smegmatis ATCC607; format: cell-based; conditions: 90% inhibitory concentration for bacterial growth, Alamar Blue fluorescence; for IC90 MSM 607: 48 hours; for IC90: Mycolicibacterium smegmatis, ATCC607, 48 h, read-out: IC90 MSM 607
How it was run: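 IC90 (μg/ml) derived from Alamar Blue fluorescence (530/590 nm) after 48 h growth at 37 °C under 5% CO2. About 250 CFU per well in Mueller-Hinton broth faced five-fold serial compound dilutions in BSA-containing wells.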

[2] = tested on: Staphylococcus aureus (ATCC29213); test: In-vitro anti-bacterial activity, microtitre plate assay, IC90 determination (non-mycobacterial strains); format: cell-based; conditions: 90% inhibitory concentration for bacterial growth, resazurin fluorescence; for IC90 STA B29213: 24 hours; for IC90: Staphylococcus aureus, ATCC29213, 24 h, read-out: IC90 STA B29213
How it was run: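 Growth inhibition measured fluorometrically with resazurin (530/590 nm) after overnight 37 °C incubation under normal atmosphere. Bacteria added at roughly 100 TCID50 per well in Mueller-Hinton broth to five-fold compound dilution series; IC90 reported in μg/ml.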

| Structure (SMILES) | melting point [°C] | further results |
| --- | --- | --- |
| Cc1cc(F)ccc1C1CC(O)(C(c2ccc(Cl)cc2)c2cc3cc(Cl)ccc3[nH]c2=O)CCN1 (centres unmarked) (as salt: hydrochloride) [Compound 303] | > 250 | – |
| CSc1ccc2[nH]c(=O)c(C(c3cccc(Cl)c3)C3(O)CCNC(Cc4ccc(F)cc4F)C3)cc2c1 (centres unmarked) (as salt: hydrochloride) [Compound 309] | > 260 | – |
| CSc1ccc2[nH]c(=O)c(C(c3cccc(Cl)c3)C3(O)CCNC(Cc4ccc(F)cc4F)C3)cc2c1 (centres unmarked) (as salt: hydrochloride) [Compound 310] | 126 | – |
| O=c1[nH]c2ccc(Br)cc2cc1C(c1ccc(Cl)cc1)C1(O)CCNC(Cc2ccc(F)cc2F)C1 (centres unmarked) (as salt: hydrochloride) [Compound 314] | 234 | – |
| O=c1[nH]c2ccc(Br)cc2cc1C(c1ccc(Cl)cc1)C1(O)CCNC(Cc2ccc(F)cc2F)C1 (centres unmarked) (as salt: hydrochloride) [Compound 315] | > 260 | – |
| O=c1[nH]c2ccc(Br)cc2cc1C(c1ccc(Cl)cc1)C1(O)CCNC(Cc2ccc(F)cc2F)C1 (centres unmarked) (as salt: hydrochloride) [Compound 322] | 248 | – |
| CSc1ccc2[nH]c(=O)c(C(c3ccc(Cl)cc3)C3(O)CCNC(Cc4ccc(F)cc4)C3)cc2c1 (centres unmarked) (as salt: hydrochloride) [Compound 334] | 232 | – |
| O=c1[nH]c2ccc(Cl)cc2cc1C(c1ccc(Cl)cc1)C1(O)CCNC(Cc2ccc(F)cc2)C1 (centres unmarked) (as salt: hydrochloride) [Compound 343] | > 250 | – |
| O=c1[nH]c2ccc(Br)cc2cc1C(c1ccc(Cl)cc1)C1(O)CCNC(Cc2ccc(F)cc2)C1 (centres unmarked) (as salt: hydrochloride) [Compound 365] | 242 | – |
| O=c1[nH]c2ccc(Cl)cc2cc1C(c1ccc(Cl)cc1)C1(O)CCNCC1F (centres unmarked) (as salt: hydrochloride) [Compound 457] | > 250 | – |
| COc1nc2ccc(SC)cc2cc1C(c1cccc(Cl)c1)C1(O)CCNC(Cc2ccc(F)cc2F)C1 (centres unmarked) (as salt: trifluoroacetate) [Compound 50] | 208 | – |
| COc1nc2ccc(S(C)(=O)=O)cc2cc1C(c1ccc(Cl)cc1)C1(O)CCNC(Cc2ccc(F)cc2F)C1 (centres unmarked) (as salt: trifluoroacetate) [Compound 305] | 133 | – |
| COc1nc2ccc(Br)cc2cc1C(c1ccc(Cl)cc1)C1(O)CCNC(Cc2ccc(F)cc2F)C1 (centres unmarked) (as salt: trifluoroacetate) [Compound 313] | 147 | – |
| COc1nc2ccc(Br)cc2cc1C(c1ccc(Cl)cc1)C1(O)CCNC(Cc2ccc(F)cc2F)C1 (centres unmarked) (as salt: trifluoroacetate) [Compound 319] | 169 | – |
| COc1nc2ccc(S(C)(=O)=O)cc2cc1C(c1cccc(Cl)c1)C1(O)CCNC(Cc2ccc(F)cc2F)C1 (centres unmarked) (as salt: trifluoroacetate) [Compound 326] | 166 | – |
| COc1nc2ccc(Cl)cc2cc1C(c1ccc(Cl)cc1)C1(O)CCNC(c2ccc(F)cc2C)C1 (single isomer, unassigned) [Compound 2] | 126 | IC90 MSM 607 [1]: 13.20 µg/mL (≈ 25.1 µM); IC90 STA B29213 [2]: 13.20 µg/mL (≈ 25.1 µM) |

| Structure (SMILES) | melting point [°C] | further results |
| --- | --- | --- |
| COc1nc2ccc(Br)cc2cc1C(n1cccn1)[C@@]1(O)CCN[C@H](Cc2ccccc2)C1 (stereo in doubt) (as salt: fumarate) [Compound 67] | 245 | – |
| CS(=O)(=O)c1ccc2[nH]c(=O)c(C(c3ccc(Cl)cc3)C3(O)CCN[C@@H](Cc4ccc(F)c(F)c4)C3)cc2c1 (stereo in doubt) (as salt: hydrochloride) [Compound 205] | > 250 | – |
| COc1nc2ccc(SC)cc2cc1[C@@H](c1ccc(Cl)cc1)C1(O)CCNCC1(C)C (stereo in doubt) [Compound 62] | 212 | IC90 [1]: 4.57 µg/mL (≈ 10 µM); IC90 [2]: 5.75 µg/mL (≈ 12.6 µM) |
| COc1nc2ccc(Br)cc2cc1C(c1ccc(Cl)cc1)C1(O)CCNC(C)C1 (centres unmarked) [Compound 11] | 143 | IC90 [1]: 3 µg/mL (≈ 6.3 µM); IC90 [2]: 3 µg/mL (≈ 6.3 µM) |
| COc1nc2ccc(Cl)cc2cc1C(c1ccc(Cl)cc1)C1(O)CCNC(CO)C1 (centres unmarked) [Compound 12] | 135 | IC90 [1]: 2.82 µg/mL (≈ 6.3 µM); IC90 [2]: 7.09 µg/mL (≈ 15.8 µM) |
| O=c1[nH]c2ccc(Cl)cc2cc1C(c1ccc(Cl)cc1)C1(O)CCNC(CO)C1 (centres unmarked) [Compound 20] | 232 | IC90 [2]: > 10.9 µg/mL |
| COc1nc2ccc(Br)cc2cc1C(c1ccc(Cl)cc1)C1(O)CCNC(Cc2ccccc2)C1 (centres unmarked) [Compound 70] | 112 | IC90 STA B29213 [2]: 4.38 µg/mL (≈ 7.94 µM) |
| COc1nc2ccc(Br)cc2cc1C(c1ccc(Cl)cc1)C1(O)CCN(Cc2ccccc2)C(Cc2ccccc2)C1 (centres unmarked) [Compound 75] | 192 | – |
| COc1nc2ccc(Br)cc2cc1C(c1ccc(Cl)cc1)C1(O)CCNC(Cc2ccc(F)c(F)c2)C1 (centres unmarked) [Compound 111] | 111 | – |
| COc1nc2ccc(F)cc2cc1C(c1ccc(Cl)cc1)C1(O)CCN(C(C)c2ccccc2)C(CO)C1 (centres unmarked) [Compound 436] | 135 | IC90 [2]: 13.4 µg/mL (≈ 25.1 µM) |
| COc1nc2ccc(Cl)cc2cc1C(c1ccc(Cl)cc1)C1(O)CCNCC1Cc1ccccn1 (centres unmarked) [Compound 438] | 188 | IC90 STA B29213 [2]: 3.21 µg/mL (≈ 6.31 µM) |
| COc1nc2ccc(Cl)cc2cc1C(c1ccc(Cl)cc1)C1(O)CCNCC1Cc1ccccn1 (centres unmarked) [Compound 439] | 132 | IC90 STA B29213 [2]: 12.77 µg/mL (≈ 25.1 µM) |
| COc1nc2ccc(Cl)cc2cc1C(c1ccc(Cl)cc1)C1(O)CCNCC1c1cccnc1 (centres unmarked) [Compound 443] | 156 | IC90 STA B29213 [2]: 4.41 µg/mL (≈ 8.92 µM) |
| COc1nc2ccc(Cl)cc2cc1C(c1ccc(Cl)cc1)C1(O)CCNCC1c1cccnc1 (centres unmarked) [Compound 444] | 172 | IC90 STA B29213 [2]: 12.42 µg/mL (≈ 25.1 µM) |
| COc1nc2ccc(Cl)cc2cc1C(c1ccc(Cl)cc1)C1(O)CCNCC1c1cccnc1 (centres unmarked) [Compound 445] | 154 | IC90 STA B29213 [2]: 3.50 µg/mL (≈ 7.08 µM) |

More lines, main results first:

| melting point [°C] | Structure (SMILES) | further results |
| --- | --- | --- |
| 232 | CS(=O)(=O)c1ccc2[nH]c(=O)c(C(c3cccc(Cl)c3)C3(O)CCNC(Cc4ccc(F)cc4F)C3)cc2c1 (centres unmarked) (as salt: hydrochloride) [Compound 307] | – |
| > 260 | CS(=O)(=O)c1ccc2[nH]c(=O)c(C(c3cccc(Cl)c3)C3(O)CCNC(Cc4ccc(F)cc4F)C3)cc2c1 (centres unmarked) (as salt: hydrochloride) [Compound 308] | – |
| 248 | CS(=O)(=O)c1ccc2[nH]c(=O)c(C(c3cccc(Cl)c3)C3(O)CCNC(Cc4ccc(F)cc4F)C3)cc2c1 (centres unmarked) (as salt: hydrochloride) [Compound 327] | – |
| > 260 | O=c1[nH]c2ccc(Br)cc2cc1C(c1ccc(Cl)cc1)C1(O)CCNC(Cc2ccc(F)cc2)C1 (centres unmarked) (as salt: hydrochloride) [Compound 341] | – |
| > 250 | CSc1ccc(C(c2cc3cc(Cl)ccc3[nH]c2=O)C2(O)CCNC(c3ccc(F)cc3C)C2)cc1 (centres unmarked) (as salt: hydrochloride) [Compound 349] | – |
| > 250 | O=c1[nH]c2ccc(F)cc2cc1C(c1ccc(Cl)cc1)C1(O)CCNC(Cc2ccccc2)C1 (centres unmarked) (as salt: hydrochloride) [Compound 375] | – |
| 154 | COc1nc2ccc(Br)cc2cc1C(c1ccc(Cl)cc1)C1(O)CCN(Cc2ccccc2)CC1C (centres unmarked) (as salt: salt) [Compound 25] | – |
| 238 | COc1nc2ccc(Br)cc2cc1C(c1ccc(Cl)cc1)C1(O)CCN(Cc2ccccc2)CC1C (centres unmarked) (as salt: salt) [Compound 26] | – |
| 176 | COc1nc2ccc(Br)cc2cc1C(c1ccc(Cl)cc1)C1(O)CCNC(Cc2ccc(F)cc2F)C1 (centres unmarked) (as salt: trifluoroacetate) [Compound 51] | – |
| 157 | COc1nc2ccc(S(C)(=O)=O)cc2cc1C(c1ccc(Cl)cc1)C1(O)CCNC(Cc2ccc(F)cc2F)C1 (centres unmarked) (as salt: trifluoroacetate) [Compound 306] | – |
| 144 | COc1nc2ccc(S(C)(=O)=O)cc2cc1C(c1cccc(Cl)c1)C1(O)CCNC(Cc2ccc(F)cc2F)C1 (centres unmarked) (as salt: trifluoroacetate) [Compound 325] | – |
| 146 | COc1nc2ccc(Cl)cc2cc1C(c1ccc(Cl)cc1)C1(O)CCNC(c2ccc(F)cc2C)C1 (single isomer, unassigned) [Compound 3] | IC90 MSM 607 [1]: 0.83 µg/mL (≈ 1.58 µM); IC90 STA B29213 [2]: 0.83 µg/mL (≈ 1.58 µM) |
| 245 | CS(=O)(=O)c1ccc2[nH]c(=O)c(C(c3ccc(Cl)cc3)C3(O)CCN[C@@H](Cc4ccc(F)c(F)c4)C3)cc2c1 (stereo in doubt) (as salt: hydrochloride) [Compound 206] | – |
| 182 | COc1nc2ccc(Cl)cc2cc1C(c1ccc(Cl)cc1)C1(O)CCN(C(C)c2ccccc2)C(CO)C1 (centres unmarked) [Compound 9] | IC90 [1]: 3.48 µg/mL (≈ 6.31 µM); IC90 [2]: 4.92 µg/mL (≈ 8.92 µM) |
| 135 | COc1nc2ccc(F)cc2cc1C(c1ccccc1)C1(O)CCNC(CO)C1 (centres unmarked) [Compound 29] | IC90 [2]: > 9.96 µg/mL |
| 138 | COc1nc2ccc(Br)cc2cc1C(c1ccc(Cl)cc1)C1(O)CCNC(Cc2ccccc2)C1 (centres unmarked) [Compound 71] | IC90 STA B29213 [2]: 4.38 µg/mL (≈ 7.94 µM) |
| 157 | COc1nc2ccc(Br)cc2cc1C(c1ccccc1)C1(O)CCNC(Cc2ccccc2)C1 (centres unmarked) [Compound 74] | – |
| 130 | COc1nc2ccc(Br)cc2cc1C(c1ccc(Cl)cc1)C1(O)CCNC(Cc2ccccc2)C1 (centres unmarked) [Compound 78] | – |
| 233 | O=c1[nH]c2ccc(Br)cc2cc1C(c1ccc(Cl)cc1)C1(O)CCNC(Cc2ccccc2)C1 (centres unmarked) [Compound 81] | IC90 [2]: 8.52 µg/mL (≈ 15.8 µM) |
| 210 | COc1nc2ccc(Br)cc2cc1C(c1ccc(Cl)cc1)C1(O)CCNC(C)C1 (centres unmarked) [Compound 123] | – |
